The source of these data is US8461205B2, “Anthranilic acid derivatives” (Chelsea Therapeutics, Inc., priority 2007, dated 2013).

As a reminder, the half-life is the time needed for the level to fall by half in the phase considered. Broadly, the IC50 is the midpoint of a concentration-inhibition curve. A higher IC50 goes with weaker potency in that assay.

Data set [1] deals with DHODH (Homo sapiens, UniProt Q02127). Briefly: DHODH inhibition. It is filed as biochemical.
The subject of data set [2] is cell proliferation. The following applies: effect stated to be unrelated to DHODH inhibition; cited from earlier work.
The nature of data set [3]: Metabolic stability in human liver microsomes. The following applies: human liver microsomes, 0.5 μM compound, 1 mg/mL protein, 1 mM NADPH, pH 7.4, 37° C.; "stable" = no degradation could be confirmed. It is filed as in vitro ADME. The procedure: The metabolic stability of the test compounds was determined using human liver microsomes. Incubations were performed with a compound concentration of 0.5 μM and a protein concentration of 1 mg/mL in 50 mM sodium phosphate buffer at physiological pH (7.4) and temperature (37° C.). The incubation mixture was preincubated at 37° C. prior to addition of NADPH (1 mM, final concentration). At several time points during 60 minutes, aliquots were removed and added to a 96 well plate placed on dry ice and deep-frozen. Samples were analyzed with LC-MS for concentration of parent compound. From the slope of the log [parent compound] vs. incubation time regression line, the in vitro half-life […] was determined. The intrinsic clearance (CLint) can be calculated using a modified Michaelis-Menten relationship, i.e., CLint=ln 2/t1/2. The CLint can then be converted to CL by using the well-stirred model of hepatic extraction. A value of 1.24 L/h/kg of the hepatic blood flow in man can be used. Results with respect to a number of compounds of the invention are reported as t1/2 (in minutes) in Table 1.
(§1) The inhibition of T cell proliferation was studied in a human T lymphoblast cell line (Jurkat). The IC50 value for each compound was calculated from the dose response curve. Adding uridine was used to monitor the specificity of the DHODH mechanism. The metabolic stability was studied in human liver microsomes. Table 1 exemplifies the invention, without limiting the scope thereof.
On the technique in general: Liver microsomes are vesicles of endoplasmic reticulum, rich in cytochrome P450 enzymes.

Data set [4] concerns human T lymphoblast cell line (Jurkat). Briefly: Inhibition of T-cell proliferation (Jurkat, 3H-TdR incorporation). To be noted: Homo sapiens; Jurkat cells, 3 days culture, 3H-TdR pulse last 4 hours. In kind it is cell-based. On the procedure: Inhibition of T cell proliferation was studied in a functional assay. A human T lymphoblast cell line (Jurkat) was cultured in the presence and absence, respectively, of DHODH inhibiting compounds. Jurkat cells were seeded in microtiterplates at a concentration of 5×10^5/mL in RPMI 1640 growth media supplemented with ultraglutamin, 10% fetal calf serum, 1 mM sodium pyruvat, 10 mM HEPES and 0.1 mg/mL gentamycin. A dilution series of ten different concentrations of inhibitor was added to the wells and the plates were kept in a cell incubator for 3 days. At the beginning of the last 4 hours period, the cultures were pulsed with 10 μl/well 0.1 Ci/mmol 3H-TdR and then harvested on filter papers and counted with a ([…]. The IC50 values for each compound were calculated from the obtained dose response curves. Adding uridine to a concentration of about 50 μM in the wells monitored the specificity for the mechanism i.e., the inhibition of cell proliferation is due to DHODH inhibition and not to a general cell toxicity of the compounds. This addition of uridine reverses the anti-proliferative effect by bypassing the DHODH enzyme using an external source of pyrimidine. Results in respect of a number of compounds of the invention are reported as Jurkat IC50 (in μM) in Table 1.
as §1

Chain of DHODH (Q02127 whole entry, species assumed): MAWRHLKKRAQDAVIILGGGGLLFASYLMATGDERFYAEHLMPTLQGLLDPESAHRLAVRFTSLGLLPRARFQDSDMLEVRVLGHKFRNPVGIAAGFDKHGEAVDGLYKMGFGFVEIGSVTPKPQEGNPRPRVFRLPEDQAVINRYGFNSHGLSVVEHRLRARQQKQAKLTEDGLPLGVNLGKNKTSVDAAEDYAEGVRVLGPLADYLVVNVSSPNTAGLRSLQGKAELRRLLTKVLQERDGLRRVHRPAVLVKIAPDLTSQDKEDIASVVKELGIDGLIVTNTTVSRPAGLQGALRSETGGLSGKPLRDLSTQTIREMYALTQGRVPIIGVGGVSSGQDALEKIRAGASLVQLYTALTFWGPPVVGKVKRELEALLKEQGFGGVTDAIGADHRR

On to `COc1ccc(OC)c(COc2ccc(O)c(C(=O)O)c2)c1` [5-(2,5-dimethoxy-benzyloxy)-2-hydroxy-benzoic acid], for which the “activity as DHODH inhibitor (in words)” value in data set [1] is “inactive”.
In the case of `COC(=O)c1cc(OCc2cc(OC)ccc2OC)ccc1NC(C)=O` [2-acetylamino-5-(2,5-dimethoxy-benzyloxy)-benzoic acid methyl ester], the “inhibition of cell proliferation (in words)” value in data set [2] is listed as “inhibits cell proliferation”.
Take `CCC(=O)Nc1ccc(/C=C/c2ccc(F)cc2C(F)(F)F)cc1C(=O)O` [INV 12, 5-[(E)-2-(4-Fluoro-2-trifluoromethyl-phenyl)-vinyl]-2-propionylamino-benzoic acid]: the half-life at 0.5 μM in data set [3] came out at 2.65 h. The molecule further displayed an IC50 in data set [4] of 160 nM.
`CCC(=O)Nc1ccc(COc2ccc(C(F)(F)F)cc2Cl)cc1C(=O)O` [INV 4, 5-(2-Chloro-4-trifluoromethyl-phenoxymethyl)-2-propionylamino-benzoic acid]: the t1/2 entry in data set [3] is listed as “stable”. In addition, it took 420 nM to reach half-maximal inhibition in data set [4] (IC50).
Consider `CCC(=O)Nc1ccc(COc2ccc(OC(F)(F)F)cc2Cl)cc1C(=O)O` [INV 10, 5-(2-Chloro-4-trifluoromethoxy-phenoxymethyl)-2-propionylamino-benzoic acid], for which the t1/2 entry in data set [3] is on record as “stable”. Besides, in data set [4], the IC50 stood at 240 nM.
For `CCC(=O)Nc1ccc(/C=C/c2ccc(F)c(Cl)c2)cc1C(=O)O` [INV 26, 5-[(E)-2-(3-Chloro-4-fluoro-phenyl)-vinyl]-2-propionylamino-benzoic acid], the half-life at 0.5 μM in data set [3] was 1.22 h. Also, the IC50 in data set [4] is 750 nM.
The corresponding values for `CCC(=O)Nc1ccc(COc2ccc(Br)cc2C(F)(F)F)cc1C(=O)O` [INV 3, 5-(4-Bromo-2-trifluoromethyl-phenoxymethyl)-2-propionylamino-benzoic acid] are 3.9 h and 470 nM.
